Earlier results as cited in patent publication US20180125916A1, “System and Method for Natural Hair Loss Prevention Oil” (priority 2016, published 2018).

System: male pattern baldness

CC(C)(C)NC(=O)[C@H]1CC[C@H]2[C@@H]3CC[C@H]4NC(=O)C=C[C@]4(C)[C@H]3CC[C@]12C [Finasteride]
sexual dysfunction side effect (administered orally): known to cause permanent sexual dysfunction

Nc1cc(N2CCCCC2)nc(N)[n+]1[O-] [Minoxidil]
shedding on use (first 2 months of use): can cause shedding in the first 2 months of use | itching as a side effect (in vivo): high likelihood of a considerable itching
